We go through three molecules from article PMC2762193 (Journal of the American Chemical Society, 2009).

The target in the experiment is wtTaq polymerase (Thermus aquaticus, UniProt P19821). Briefly: gel-based steady-state single nucleotide incorporation, […]-labelled primer. The format is biochemical. To be noted: 1 x Taq buffer, 60 °C.

Structures are written as SMILES.

Chain of wtTaq polymerase (P19821 whole entry): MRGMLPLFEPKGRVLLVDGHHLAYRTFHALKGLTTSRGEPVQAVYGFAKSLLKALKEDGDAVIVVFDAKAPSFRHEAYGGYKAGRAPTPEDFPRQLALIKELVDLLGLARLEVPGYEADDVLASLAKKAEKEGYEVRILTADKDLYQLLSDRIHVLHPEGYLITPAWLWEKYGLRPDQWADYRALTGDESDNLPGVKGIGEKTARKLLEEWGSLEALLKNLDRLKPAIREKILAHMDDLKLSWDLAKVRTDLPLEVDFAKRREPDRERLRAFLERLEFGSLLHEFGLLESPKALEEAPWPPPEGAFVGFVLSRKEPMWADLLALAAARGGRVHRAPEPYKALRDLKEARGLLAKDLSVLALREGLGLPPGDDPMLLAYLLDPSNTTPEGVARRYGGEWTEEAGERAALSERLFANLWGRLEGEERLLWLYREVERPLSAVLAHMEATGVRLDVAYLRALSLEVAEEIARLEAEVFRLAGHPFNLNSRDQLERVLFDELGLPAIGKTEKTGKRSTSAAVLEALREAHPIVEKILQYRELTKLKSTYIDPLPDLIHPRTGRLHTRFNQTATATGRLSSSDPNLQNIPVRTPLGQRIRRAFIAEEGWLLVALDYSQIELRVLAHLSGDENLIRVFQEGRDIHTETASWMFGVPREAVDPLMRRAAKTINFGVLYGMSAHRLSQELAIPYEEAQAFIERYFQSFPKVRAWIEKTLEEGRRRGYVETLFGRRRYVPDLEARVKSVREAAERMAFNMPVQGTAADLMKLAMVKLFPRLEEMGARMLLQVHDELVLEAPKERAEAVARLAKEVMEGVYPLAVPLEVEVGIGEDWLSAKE

On to `Nc1ncnc2c1ncn2[C@H]1C[C@H](O)[C@@H](COP(=O)(O)OP(=O)(O)OP(=O)(O)O)O1` [dATP], for which the Km entry (opposite template d5NI or d5NIC) is given as “incorporation of dNTPs opposite template d5NIC”.
Consider `Nc1nc2c(ncn2[C@H]2C[C@H](O)[C@@H](COP(=O)(O)OP(=O)(O)OP(=O)(O)O)O2)c(=O)[nH]1` [dGTP], for which the Km result (opposite template dC) was “incorporation of dTTP opposite dA or dGTP opposite dC”.
Take `Cc1cn([C@H]2C[C@H](O)[C@@H](COP(=O)(O)OP(=O)(O)OP(=O)(O)O)O2)c(=O)[nH]c1=O` [dTTP]: the Km entry (opposite template dA) is on record as “incorporation of dTTP opposite dA or dGTP opposite dC”.
